Assay results from patent US11401233B1, “Pleuromutilin salicylic acid ester with antibacterial activity and a method of preparing the same” (SHAANXI UNIVERSITY OF SCIENCE AND TECHNOLOGY, priority 2021, dated 2022).

Experiments:
drug-resistant bacteria = experiment: Paper diffusion method drug sensitivity test, overall statement on drug-resistant bacteria; type: cell-based, Staphylococcus aureus; settings: drug-resistant bacteria in general (strains of Table 1); 30 μg/tablet
Procedure: (§1) The antimicrobial efficacy was determined by a paper diffusion method drug sensitivity test.
(§2) E Experimental strains: multi-resistant Staphylococcus aureus 206 (MRSA-206), multi-resistant Staphylococcus aureus 575 (MRSA-575), multi-resistant Staphylococcus aureus 596 (MRSA-596). The experimental strain was identified by Huashan Hospital Affiliated to Fudan University (Institute of Antibiotic of Fudan University).
(§3) Drug sensitive paper: The drug sensitive paper was a special drug sensitive paper with a diameter of 6.35 mm and a water absorption of 0.02 mL. The control drug was vancomycin (30 μg/tablet); the test drugs were pleuromulin (30 μg/tablet), salicylic acid (30 μg/tablet) and pleuromulin salicylic acid ester (30 μg/tablet).
(§4) Reagents: LB agar medium, LA broth medium, 0.5% DMSO solution.
(§5) T The experimental strains were inoculated in non-selective medium and placed in air at 37° C. for 24 h. A single colony that grows well and inoculate it into broth medium was incubate at 35° C.±2° C. for 6 hours, and LA broth medium was used to calibrate the concentration of the bacterial solution to 0.5 Mie turbidimetric tube (1.5×10^8 CFU/mL). A bacterial suspension was obtained.
LB dry powder was weighed, sterilized at 103.4 Kpa, 121.3° C. high-pressure steam for 15 min, and then placed it in a 40° C.-50° C. water bath. A sterile empty plate (inner diameter 9 cm) was placed on the surface of the ultra-clean table water table, and […] to the plate. The thickness of each plate was 3 mm to 4 mm. After the plate was cooled at room temperature, it was stored in the refrigerator at 2° C.-8° C. A sterile cotton swab was used to dip the bacterial solution and ti evenly coat the surface of the LB plate 3 times. After inoculation of the bacterial suspension, the LB plate was dried at room temperature for 3 min to 5 min. Sterile forceps were used to closely attach the antibacterial drug paper to the dish. The dish was put upside down and placed in a 37° C. incubator for 24 h. The results were observed by measuring the diameter. […]

[1] = tested on: multi-resistant Staphylococcus aureus 575 (MRSA-575); experiment: Paper diffusion method drug sensitivity test, MRSA-575; type: cell-based; settings: for Zone of inhibition: MRSA-575, 30 μg/tablet paper disc 6.35 mm, LB plate, 37° C., 24 h, ≥17 mm sensitive, 15-16 mm intermediary, ≤14 mm drug resistance
Procedure: as §1, §2, §3, §4, §5
(§6) LB dry powder was weighed, sterilized at 103.4 Kpa, 121.3° C. high-pressure steam for 15 min, and then placed it in a 40° C.-50° C. water bath. A sterile empty plate (inner diameter 9 cm) was placed on the surface of the ultra-clean table water table, and […] to the plate. The thickness of each plate was 3 mm to 4 mm. After the plate was cooled at room temperature, it was stored in the refrigerator at 2° C.-8° C. A sterile cotton swab was used to dip the bacterial solution and ti evenly coat the surface of the LB plate 3 times. After inoculation of the bacterial suspension, the LB plate was dried at room temperature for 3 min to 5 min. Sterile forceps were used to closely attach the antibacterial drug paper to the dish. The dish was put upside down and placed in a 37° C. incubator for 24 h. The results were observed by measuring the diameter. Taking 0.5% DMSO solution as a negative control, the antibacterial activity is expressed by the diameter of the inhibition zone. The inhibition zone≥17 mm, sensitive; the inhibition zone of 15 mm-16 mm, intermediary; the inhibition zone≤14 mm, drug resistance.

[2] = tested on: multi-resistant Staphylococcus aureus 596 (MRSA-596); experiment: Paper diffusion method drug sensitivity test, MRSA-596; type: cell-based; settings: for Zone of inhibition: MRSA-596, 30 μg/tablet paper disc 6.35 mm, LB plate, 37° C., 24 h, ≥17 mm sensitive, 15-16 mm intermediary, ≤14 mm drug resistance
Procedure: as §1, §2, §3, §4, §5, §6

MRSA-171 = experiment: Paper diffusion method drug sensitivity test, MRSA-171; type: cell-based, Staphylococcus aureus; settings: for Zone of inhibition: MRSA-171, 30 μg/tablet paper disc 6.35 mm, LB plate, 37° C., 24 h, ≥17 mm sensitive, 15-16 mm intermediary, ≤14 mm drug resistance

| Compound | inhibitory effect on drug-resistant bacteria (in words) (drug-resistant bacteria) | Zone of inhibition [1] [mm] | inhibitory effect (in words) ([1]; multi-drug resistant Staphylococcus aureus 575, 30 μg/tablet) | Zone of inhibition [2] [mm] | inhibitory effect (in words) ([2]; multi-drug resistant Staphylococcus aureus 596, 30 μg/tablet) | Zone of inhibition (MRSA-171) [mm] | inhibitory effect (in words) (MRSA-171; multi-drug resistant Staphylococcus aureus 171, 30 μg/tablet) |
| --- | --- | --- | --- | --- | --- | --- | --- |
| C=C[C@]1(C)C[C@@H](OC(=O)COC(=O)c2ccccc2O)[C@]2(C)[C@H](C)CC[C@]3(CCC(=O)[C@H]32)[C@@H](C)[C@@H]1O | excellent antibacterial activity and anti-drug-resistant bacteria activity | 10 | strong inhibitory effects | 26 | strong inhibitory effects | 16 | strong inhibitory effects |
| C=C[C@]1(C)C[C@@H](OC(=O)CO)[C@]2(C)[C@H](C)CC[C@]3(CCC(=O)[C@H]32)[C@@H](C)[C@@H]1O [Pleuromulin] | no inhibitory effect | 0 | – | 0 | – | 0 | – |
| O=C(O)c1ccccc1O [Salicylic acid] | no inhibitory effect | 0 | – | 0 | – | 0 | – |
| CN[C@H](CC(C)C)C(=O)N[C@H]1C(=O)N[C@@H](CC(N)=O)C(=O)N[C@H]2C(=O)N[C@H]3C(=O)N[C@H](C(=O)N[C@H](C(=O)O)c4cc(O)cc(O)c4-c4cc3ccc4O)[C@H](O)c3ccc(c(Cl)c3)Oc3cc2cc(c3O[C@@H]2O[C@H](CO)[C@@H](O)[C@H](O)[C@H]2O[C@H]2C[C@](C)(N)[C@H](O)[C@H](C)O2)Oc2ccc(cc2Cl)[C@H]1O [Vancomycin, vancomycin] | – | 17 | – | 23 | – | 15 | – |
